Results reported in patent US20260294305A1, “METHOD FOR EX VIVO MEASURING GLOMERULAR FILTRATION RATE IN A SUBJECT” (Assistance Publique - Hôpitaux de Paris, priority 2023, published 2026).
Values joined by “and” are separate entries in the source; they are usually repeats but may differ in a detail not shown here. Equal values may be shown once. Blank lines part the entries; values can stand above or below the compound they belong to.

What was measured:
[1] = more specifically by glomerular filtration; cited from earlier work
[2] = after a bolus injection; cited from earlier work
[3] = GFR measurement with iomeprol clearance assessed by CT urography (CT-mGFR), living kidney donor candidates; format: in vivo
Protocol: This is a cross-sectional study using data from kidney donor candidates who were screened in hospital between July 2016 and October 2022, with both GFR measurement by iohexol clearance, and kidney morphology assessment by CT urogaphy.
(§1) All living kidney donor candidates investigated in Nephrology Department between July 2016 and October 2022, were eligible for inclusion. In accordance with the KDIGO guidelines (Lentine K L et al. ([11])), GFR was measured in all these individuals from iohexol clearance. […] The CT urography had to include 4 polychromatic acquisition phases (unenhanced, arterial, nephrographic, and excretory phases) with a monophasic injection of iomeprol at 350 or 400 mg of iodine per milliliter (Iomeron® 350 or 400, Bracco Imaging, Milano, Italy).
CT-mGFR was assessed by the same U×V/P calculation used to determine the urinary clearance of iohexol: the amount of iomeprol excreted through the urinary system during a given period of time was divided by the mean serum iomeprol concentration during the same period. The blood and urine concentration of iomeprol were assessed by attenuation measurement (Hounsfield Units, HU) in the different areas of interest. The time periods were derived from the acquisition time of the different phases. […] Manual segmentations of bladder, upper urinary tracts and kidneys were performed using the Advantage Windows software (Advantage Window v4.7; GE Healthcare, Buc, France), using different thresholds depending on the CT phase and then manually finalized. For non-contrast and portal venous phase: only a lower limit was set to 0 HU, in order to exclude fat pixels. For excretory phases: a specific threshold was adapted for each patient based on visual analysis in order to reduce extra-urinary pixels as much as possible. Also, the lower threshold used for upper excretory tract was used as the higher threshold for kidney segmentation to avoid overlap in segmentations. The urinary excretion rate of iomeprol between arterial and excretory phases (U×V, expressed as HU/min) was calculated from urinary excretion of iomeprol into the bladder (Uexcr-Bladder), urinary excretion of iomeprol into the upper excretory tract (calyces, pelvis, ureters) (Uexcr-tract), and urinary excretion of iomeprol into the kidney tubules (Uexcr-tubules): U×V=Uexcr-Bladder+Uexcr-tract+Uexcr-tubules. Uexcr-bladder was the volume of the bladder at the excretory phase (Bladder-Volume) multiplied by the mean CT-attenuation of the bladder at the excretory phase (HU-Bladder-excr) minus the CT-attenuation of the urine in bladder at the unenhanced phase (HU-Bladder-unenhanced), then divided by the time period between the excretory phase and the arterial phase (time period): Uexcr-Bladder=Bladder-volume×(HU-Bladder-excr−HU-Bladder-unenhanced)/time period. When the bladder was not included on the unenhanced phase, urine CT-attenuation could be measured on the nephrographic phase, the urine density at the nephrographic phase being slightly higher than at the unenhanced phase, but without clinical consequence on the CT-mGFR calculation. Uexcr-tract was determined in the same way by studying the upper excretory tract (calyces, pelvis, ureters) instead of the bladder. Uexcr-tubules was the volume of both kidneys (Kidney-volumes) multiplied by mean CT-attenuation of kidneys at the excretory phase (HU-Kidney-excr) minus mean CT-attenuation of kidneys at the unenhanced phase (HU-Kidney-unenhanced), then divided by time period: Uexcr-tubules=Kidney-volumes×(HU-Kidney-excr-HU-Kidney-unenhanced)/time period. The denominator of the U×V/P equation, was the calculated serum iomeprol concentration at the midpoint of the period between the arterial and excretory phases. At each phase, the difference between the CT attenuation of the aorta and the one at the unenhanced phase was the surrogate for the serum iomeprol concentration. […]

plasma proteins = settings: cited from earlier work
[4] = cited from earlier work
[5] = GFR measurement with iohexol clearance, chronic kidney disease patients; format: in vivo; settings: mean ± SD, 28 CKD patients
Protocol: After a 5 mL bolus injection of iohexol (300 mg/L Omnipaque®; GE Healthcare, France), and an equilibration period (time the tracer takes to distribute in the extracellular compartment), blood and urine samples were collected over four to six consecutive clearance periods. We performed six 30-min periods after a 90-min equilibration period until July 2019, then four 40-min periods after a 120-min equilibration. The concentrations of iohexol in serum and urine were determined by high-performance liquid chromatography (HPLC) as previously described (Cavalier E et al. ([12])). Measured GFR (mGFR) was the mean of the four to six clearance-period values calculated as follows: U×V/P, where U is the concentration of iohexol in the urine collected during the period, V is the urinary flow rate during the period, and P is the serum concentration of iohexol at mid period. […] If voiding was irregular or incomplete or in case of urine loss, mGFR was calculated with iohexol plasma clearance determined from the plasma disappearance curve, with Bröchner-Mortensen correction model for the missing early compartment (Bröchner-Mortensen J. A ([15])). […]
Iohexol clearance was measured as previously described in the example 1.

[6] = GFR measurement with iohexol clearance (mGFR), living kidney donor candidates; format: in vivo
Protocol: as §1
After a 5 mL bolus injection of iohexol (300 mg/L Omnipaque®; GE Healthcare, France), and an equilibration period (time the tracer takes to distribute in the extracellular compartment), blood and urine samples were collected over four to six consecutive clearance periods. We performed six 30-min periods after a 90-min equilibration period until July 2019, then four 40-min periods after a 120-min equilibration. The concentrations of iohexol in serum and urine were determined by high-performance liquid chromatography (HPLC) as previously described (Cavalier E et al. ([12])). Measured GFR (mGFR) was the mean of the four to six clearance-period values calculated as follows: U×V/P, where U is the concentration of iohexol in the urine collected during the period, V is the urinary flow rate during the period, and P is the serum concentration of iohexol at mid period. Given the negative bias of this GFR measurement method (Seegmiller J C et al. ([13]), Stehlé T et al. ([14])), the following correction was used: mGFR=1.15×iohexol urinary clearance+1.3 (Stehlé T et al. ([14])). If voiding was irregular or incomplete or in case of urine loss, mGFR was calculated with iohexol plasma clearance determined from the plasma disappearance curve, with Bröchner-Mortensen correction model for the missing early compartment (Bröchner-Mortensen J. A ([15])).

Structure (SMILES): CC(=O)N(CC(O)CN(C(C)=O)c1c(I)c(C(=O)NCC(O)CO)c(I)c(C(=O)NCC(O)CO)c1I)c1c(I)c(C(=O)NCC(O)CO)c(I)c(C(=O)NCC(O)CO)c1I (stereo not shown) [iodixanol]
- Route of elimination [1]: eliminated almost exclusively by the urinary excretion

- Serum iomeprol concentrations assessed at the arterial phase ([3]; example patient, 0 min, aorta attenuation minus unenhanced): 210.2 HU
- Serum iomeprol concentrations assessed at the nephrographic phase ([3]; example patient, 0.77 min, aorta attenuation minus unenhanced): 88.3 HU
- Serum iomeprol concentrations assessed at the excretory phase ([3]; example patient, 9.47 min, aorta attenuation minus unenhanced): 46.8 HU
- Ln (iomeprol mid-period) ([3]; example patient, mid-period between arterial and excretory phases): 4.396
- CT-mGFR, maximum ([3]; max): 174.0 ml/min/1.73 m^2
- Mean CT-mGFR (iomeprol clearance assessed by CT urography) ([3]; mean ± SD, n=75 living kidney donor candidates): 100.9±19.5 ml/min/1.73 m^2
- CT-mGFR, minimum ([3]; min): 60.8 ml/min/1.73 m^2
Structure (SMILES): CN(C(=O)CO)c1c(I)c(C(=O)NCC(O)CO)c(I)c(C(=O)NCC(O)CO)c1I (stereo not shown) [iomeprol]
- Correlation between its clearance and that of inulin [2]: very good correlation
- Extra-renal clearance [2]: negligible
- Plasma concentration decline [2]: declined biexponentially
- Plasma protein binding (plasma proteins): does not bind measurably to plasma proteins
- Water solubility [4]: hydrosoluble

Structure (SMILES): CN(CC(O)CO)C(=O)c1c(I)c(NC(=O)C(CO)CO)c(I)c(C(=O)N(C)CC(O)CO)c1I (stereo not shown) [iobitridol]
- Route of elimination [1]: eliminated almost exclusively by the urinary excretion

- mGFR (iohexol clearance), maximum ([6]; max): 140.2 ml/min/1.73 m^2
- mGFR (iohexol clearance) ([6]; mean ± SD, mGFR=1.15×iohexol urinary clearance+1.3): 99.7±19.1 ml/min/1.73 m^2
- mGFR (iohexol clearance), minimum ([6]; min): 59.9 ml/min/1.73 m^2
- mGFR, ml/min, mean ± SD ([6]; study population, Table 1): 99.7 ± 19.1 mL/min
Structure (SMILES): CC(=O)N(CC(O)CO)c1c(I)c(C(=O)NCC(O)CO)c(I)c(C(=O)NCC(O)CO)c1I (stereo not shown) [iohexol]
- Iohexol clearance-measured GFR [5]: 46.0 mL/min/1.73 m2 and 46.0 ± 15.8 mL/min/1.73 m2
